Data: patent publication US8541193B2, “Cationic anti-microbial peptides and methods of use thereof” (Systagenix Wound Management (US), Inc., priority 2003, dated 2013)
Where no end group is shown, it is not given here.

Key:
[1] = system: proteinases secreted by Enterococcus faecalis; conditions: in vitro; cited from earlier work
[2] = system: proteinases secreted by Proteus mirabilis; conditions: in vitro; cited from earlier work
[3] = system: proteinases secreted by Streptococcus pyogenes; conditions: in vitro; cited from earlier work
[4] = system: proteinases secreted by Pseudomonas aeruginosa; conditions: in vitro; cited from earlier work
S. pyogenes [5] = assay: Porcine wound fluid protease assay; format: biochemical; conditions: S. pyogenes bacterial supernatant in porcine wound fluid
Procedure: (§1) In order to test for cross reactivity in a wound, the assays were performed under physiologically relevant conditions. The assay for LL1 and LL2 were tested using porcine wound fluid extract in place of reaction buffer.
(§2) Immediately after surgery to create partial thickness wounds for the sensor study a gauze dressing was placed on the wound. After a time the dressing was removed, bagged, and placed in a freezer at −80 C. Absorbed wound fluid was recovered from the dressing by incubation in 10 mls buffer (0.1M Tris-HCl, pH 7.4 with 0.1% TRITON X-100® non-ionic surfactant (Octylphenol ethylene oxide condensate; Sigma Aldrich, St. Louis, Mo.). The dressing was incubated on both sides for 2 hours at room temperature and squeezed out. The fluid obtained was aliquoted out and frozen at −20 C.
(§3) The bacteria were grown in an incubator overnight at 37° C. in 5 ml BHI (Brain Heart Infusion) media. Each of the resulting cultures was spun down and the supernatant was collected. The assays were run in freshly thawed wound fluid. The reaction was carried out with 7 μl of culture or supernatant and 3 μl peptide substrate (5 mg/ml in water) in 100 μl total volume at 37 C. The reaction was followed on a fluorimetric plate reader using an excitation wavelength of 355 nm and an emission wavelength of 485 nm.
(§4) The protease assay was run using the LL2 peptide previously identified as a substrate for S. pyogenes and Pseudomonas.
(§5) Bacterial cells used in this assay were grown to stationary phase in Brain Heart Infusion (PHI) medium. Briefly, 5 μl of bacterial culture was incubated with 3 μl of LL2 peptide substrate and 92 μl of sterile wound fluid. The reaction was followed on a 96 well microtiter plate reader using an excitation an emission wavelength of 355 nm and 538 nm respectively at 37° C. The reaction was monitored for a period of 1 h and plotted using the KALEIDAGRAPH software.

Pseudomonas [6] = assay: Porcine wound fluid protease assay; format: biochemical
Procedure: as §1, §2, §3, §4, §5

S. pyogenes [7] = assay: Fluorimetric (edans/dabcyl) protease detection assay with bacterial culture or supernatant in buffer; format: biochemical
Procedure: (§6) The peptide substrates used here were labeled with the fluorescent probe edans (5-((2-aminoethyl)amino)naphthalene-1-sulphonic acid) and the quencher dye molecule dabcyl((4-(4-(dimethylamino)phenyl)azo)benzoic acid).
as §3, with “cultures was split into two samples. One was used as is, and the other was spun down” for “cultures was spun down”, “run in 20 mM tris buffer (pH 7.4) with 150 mM NaCl added. The reaction” for “run in freshly thawed wound fluid. The reaction”
(§7) The first set of experiments was performed by addition of the bacterial culture (media and cells) directly into the assay solution. If the protease is attached to the cell membrane it would not be expected to be found secreted into the media. Thus, the presence of cells would be necessary.
as §5, with “Infusion (BHI)” for “Infusion (PHI)”, “Briefly, 7” for “Briefly, 5”, “of LL 1” for “of LL2”, “of […]).” for “of sterile wound fluid.”, “1 hr.” for “1 h”, “software. Buffer, 20 mM Tris buffer (pH 7.4) with 150 mM NaCl.” for “software.”
(§8) The assay was repeated using identical conditions with the peptide LL2.
(§9) Bacterial cells used in this assay were grown to stationary phase in Brain Heart Infusion (BHI) medium. The assay was performed as previously described.

Pseudomonas [8] = assay: as above; format: biochemical
Procedure: as §6
as §3, with “cultures was split into two samples. One was used as is, and the other was spun down” for “cultures was spun down”, “run in 20 mM tris buffer (pH 7.4) with 150 mM NaCl added. The reaction” for “run in freshly thawed wound fluid. The reaction”
as §7
as §5, with “Infusion (BHI)” for “Infusion (PHI)”, “Briefly, 7” for “Briefly, 5”, “of LL 1” for “of LL2”, “of […]).” for “of sterile wound fluid.”, “1 hr.” for “1 h”, “software. Buffer, 20 mM Tris buffer (pH 7.4) with 150 mM NaCl.” for “software.”
as §8, §9

Serratia = assay: Fluorimetric (edans/dabcyl) protease detection assay with bacterial culture in buffer; format: biochemical; conditions: Serratia bacterial culture (media and cells), 37 C, 1 hr
Procedure: as §6
as §3, with “cultures was split into two samples. One was used as is, and the other was spun down” for “cultures was spun down”, “run in 20 mM tris buffer (pH 7.4) with 150 mM NaCl added. The reaction” for “run in freshly thawed wound fluid. The reaction”
The first set of experiments was performed by addition of the bacterial culture (media and cells) directly into the assay solution. If the protease is attached to the cell membrane it would not be expected to be found secreted into the media. […]
Bacterial cells used in this assay were grown to stationary phase in Brain Heart Infusion (BHI) medium. […] The reaction was followed on a 96 well microtiter plate reader using an excitation an emission wavelength of 355 nm and 538 nm respectively at 37° C. The reaction was monitored for a period of 1 hr. and plotted using the KALEIDAGRAPH software. […]

[9] = S. pyogenes bacterial culture (media and cells), buffer, 37 C, 1 hr
[10] = Pseudomonas bacterial culture (media and cells), buffer, 37 C, 1 hr
[11] = Pseudomonas bacterial supernatant, compared with culture with cells

LLGDFFRKSKEKIGKE FKRIVQRIKDFLRNLVPRTES [LL-37]
degradation of peptide by secreted proteinases [1]: degrade | degradation of peptide by secreted proteinases [2]: degrade | degradation of peptide by secreted proteinases [3]: degrade | degradation of peptide by secreted proteinases [4]: degrade

LL2: peptide substrate, variant of LL-37 encompassing its cleavage sites, labeled with fluorescent probe edans and quencher dabcyl (FIG. 1C) (KVQRIKDFLRNLVE; also: labeled with edans and dabcyl)
protease activity on peptide substrate (fluorescence) (S. pyogenes [5]): same results | protease activity on peptide substrate (fluorescence) (Pseudomonas [6]; Pseudomonas bacterial culture in sterile porcine wound fluid, 37 C, 1 h): did not have any activity above the background | protease activity on peptide substrate (fluorescence) (Pseudomonas [6]; Pseudomonas bacterial supernatant in porcine wound fluid): same results | specificity of peptide substrate (S. pyogenes [7]; FIG. 3 legend): specific for S. pyogenes | protease activity on peptide substrate (fluorescence) (S. pyogenes [7]; [9]): overall reactivity appears to be reduced somewhat | protease activity on peptide substrate (fluorescence) (Pseudomonas [8]; [10]): overall reactivity appears to be reduced somewhat | protease activity on peptide substrate (fluorescence) (Pseudomonas [8]; [11]): reduced

LL1: peptide substrate, variant of LL-37 encompassing its cleavage sites, labeled with fluorescent probe edans and quencher dabcyl (FIG. 1B) (KEKIGKEFKRIVQE; also: labeled with edans and dabcyl)
protease activity on peptide substrate (fluorescence) (S. pyogenes [7]; [9]): Some protease activity | protease activity on peptide substrate (fluorescence) (S. pyogenes [7]; S. pyogenes bacterial supernatant, compared with culture with cells): similar | protease activity on peptide substrate (fluorescence) (Pseudomonas [8]; [10]): Some protease activity | protease activity on peptide substrate (fluorescence) (Pseudomonas [8]; [11]): reduced | protease activity on peptide substrate (fluorescence) (Serratia): a small amount of activity
